Data reported in PMC7170309, “Imidazopyridine-fused [1,3]diazepinones: modulations of positions 2 to 4 and their impacts on the anti-melanoma activity” (Journal of Enzyme Inhibition and Medicinal Chemistry, 2020).

What was measured:
[1] = tested on: MDA-MB-435 cells; test: DNA cell cycle analysis (flow cytometry); type: cell-based, human; conditions: 5 µM; for proportion of cells in G2/M phase: control 14.3%; for proportion of cells in G1 phase: control 47.1%
Protocol: The cell cycle analysis was performed as previously described to compare data with our previous results. Flow cytometric analysis was performed on 350,000 MDA-MB-435 cells seeded in culture dishes (60 mm diameter) and allowed to grow for 48 h. Cells were then treated with compound 5 or 8 at 5 µM concentration for 16 h and 48 h. After treatment cells were harvested and fixed with 70% ethanol. The fixed cells were then incubated with 10 mg/mL RNase A (Sigma Aldrich) and 1 mg/mL propidium iodide (Sigma Aldrich), in the dark, for 24 h at 4 °C. Finally, DNA content of the cells was analysed using Gallios Beckman Coulter flow cytometer with FlowJo software v1.0.
Thus, compound 5 could probably shared a common mechanism of action with JMV5038, contrary to compound 8. DNA cell cycle analysis was performed using MDA-MB-435 cells treated with either compound 5 or compound 8, and compared to that obtained with cells treated with vehicle (DMSO) as a negative control. Cell cycle pattern changes of MDA-MB-435 cells were investigated using fluorescence-activated cell sorting (FACS) (Figure 5 and Figure S1, SI). In this experiment MDA-MB-435 cells were treated with or without 5 µM concentration of compound 5 or 8 for 16 h and 48 h.

[2] = Calculated physicochemical parameters (molsoft cheminformatic tool); conditions: predicted
Protocol: Data set of physicochemical properties (cLogP, TPSA and molecular volume, Table 2) were calculated using the online available molsoft cheminformatic tool[23]. IC50 values of the compounds included in the test are presented in Table 1 for the correlations between IC50 and physicochemical properties of compounds modified in position 2 (Figure 2), and in Table S1 (SI) for the correlations between in vitro anti-cancer activity of JMV5038, compound 5 and […] on the NCI cell line panel (Figure 4). Pearson’s correlation coefficient r and level of significant p values were calculated using Origin Pro 2019.

[3] = tested on: SF-268; test: NCI-60 SRB assay, SF-268 (CNS Cancer); type: cell-based, human; conditions: 10 µM, 48 h; for G%: growth vs untreated control
Protocol: (§1) Primary anticancer assay was performed on a panel of 60 human cancer cell lines derived from nine neoplastic diseases, in accordance with the protocol of the Drug Evaluation Branch, National Cancer Institute, Bethesda, Maryland, USA[22]. Cells were incubated with tested compounds at 10 µM for 48 h. The growth percentage was evaluated spectrophotometrically using a protein binding dye, SRB. Results for each tested compound were reported as the percent of growth of treated cells when compared to untreated control cells.
(§2) To better compare the activity profile of these two series of compounds, compounds 5 and 8 were selected and then evaluated towards a panel of sixty cancer cell lines corresponding to nine different cancer types, i.e. leukaemia, melanoma, as well as lung, colon, central nervous system, ovarian, renal, prostate and breast cancers (NCI evaluation). Indeed, it is now well established that the growth inhibitory patterns of anticancer drugs against the NCI-60 cell line panel correlated well with their modes of action. For example, compounds that bind to tubulin have similar growth inhibition patterns regardless of which site on tubulin they bind[30]. […] Compounds were tested using the sulforhodamine B (SRB) assay that provides a direct cell density index. The amount of dye incorporated by the cells increases with the increase of the total protein biomass. Cells were incubated for 48 h with compounds at 10 µM concentration, then cell growth was evaluated spectrophotometrically and presented as the percent of untreated control cells. Values of the most sensitive cell lines were compared to those obtained with JMV5038 (Figure 4, for all data see SI).

[4] = tested on: RPMI-8226; test: NCI-60 SRB assay, RPMI-8226 (Leukemia); type: cell-based, human; conditions: 10 µM, 48 h; for G%: growth vs untreated control
Protocol: as §1, §2

[5] = tested on: K-562; test: NCI-60 SRB assay, K-562 (Leukemia); type: cell-based, human; conditions: 10 µM, 48 h; for G%: growth vs untreated control
Protocol: as §1, §2

[6] = tested on: HL-60(TB); test: NCI-60 SRB assay, HL-60(TB) (Leukemia); type: cell-based, human; conditions: 10 µM, 48 h; for G%: growth vs untreated control
Protocol: as §1, §2

[7] = tested on: NIH-3T3 non-cancerous cells; set-up: method as in PMID 24561668; conditions: even at 100 µM; cited from earlier work

| SMILES | proportion of cells in G2/M phase ([1]; 16 h) [%] | proportion of cells in G1 phase ([1]; 16 h) | proportion of cells in G2/M phase ([1]; 48 h) [%] | cells in subG1 phase (apoptosis) ([1]; time not explicit (sentence follows 48 h), control 1.2%) [%] | molecular volume increase compared to JMV5038 [2] [%] | Mean G% - G% [3] | G% [3] | Mean G% - G% [4] | G% [4] | Mean G% - G% [5] | G% [5] | Mean G% - G% [6] | G% [6] | cytotoxic activity on NIH-3T3 fibroblasts [7] |
| --- | --- | --- | --- | --- | --- | --- | --- | --- | --- | --- | --- | --- | --- | --- |
| C[C@@H]1NC(c2ccc(N=[N+]=[N-])cc2)=Nc2nc3ccccn3c2C1=O [Compound 5, (4S)-4-methyl-2-(4-azidophenyl)-3,4-dihydro-5H-pyrido[1’,2’:1,2]imidazo[4,5-d][1,3]diazepin-5-one] | 33.1 | decrease of cells in G1 phase | 18.4 | 2.4 | 4 | -12,35% | 97,61% |  |  |  |  |  |  |  |
| C[C@@H]1NC(c2csc3ccccc23)=Nc2nc3ccccn3c2C1=O [Compound 8, (4S)-4-methyl-2-benzothiophen-3-yl-3,4-dihydro-5H-pyrido[1’,2’:1,2]imidazo[4,5-d][1,3]diazepin-5-one] | 20.8 | 53.0% | 15.4 |  |  | 8,82% | 66,05% | 24,51% | 50,36% | -6,34% | 81,21% | 6,00% | 68,87% |  |
| [N-]=[N+]=NCCCC[C@@H]1NC(c2ccc(Br)cc2)=Nc2nc3ccccn3c2C1=O [Compound 16, (4S)-4-(4-azidobutyl)-2-(4-bromophenyl)-3,4-dihydro-5H-pyrido[1’,2’:1,2]imidazo[4,5-d][1,3]diazepin-5-one] |  |  |  |  |  | 1,04% | 90,73% |  |  |  |  | 18,52% | 73,25% |  |
| C[C@@H]1NC(c2ccc(Br)cc2)=Nc2nc3ccccn3c2C1=O [JMV5038] |  |  |  |  |  | -29,20% | 83,44% | -39,73% | 93,97% | 29,92% | 24,32% |  |  | no significant cytotoxic activity |
